The test system of experiment [1] is neuraminidase (NA) of A(H3N2) viruses. The class given is biochemical, influenza A(H3N2) virus.
The subject of experiment [2] is neuraminidase (NA) of B/Yamagata-lineage viruses. The class given is biochemical, influenza B/Yamagata-lineage virus.
Experiment [3] concerns neuraminidase (NA) of A(H1N1)pdm09 viruses. The class given is biochemical, influenza A(H1N1)pdm09 virus.
For experiment [4], the system named is neuraminidase (NA) of B/Victoria-lineage viruses. Type of experiment: biochemical, influenza B/Victoria-lineage virus.

For `CCOC(=O)C1=C[C@@H](OC(CC)CC)[C@H](NC(C)=O)[C@@H](N)C1` [Oseltamivir, oseltamivir], in experiment [1], the IC50 fold-change is listed as 87 fold and the “IC50 fold-change compared to reference median IC50 values” is on record as 87 fold. Besides, the “inhibition phenotype in NAI assay (NI/RI/HRI)” value (shortened to “inhibition phenotype”) in experiment [2] is on record as “borderline RI”.
As for `[H]/N=C(\N)N[C@H]1C=C(C(=O)O)O[C@@H]([C@H](OC)[C@H](O)CO)[C@@H]1NC(C)=O` [Laninamivir, laninamivir], the “inhibition phenotype” value in experiment [1] was “borderline NI”.
With `CC(=O)N[C@H]1[C@H]([C@H](O)[C@H](O)CO)OC(C(=O)O)=C[C@@H]1N=C(N)N` [Zanamivir, zanamivir], the “inhibition phenotype” value in experiment [3] is on record as “borderline RI”. For the same molecule, the IC50 fold-change in experiment [4] was 14–17 fold. In addition, in experiment [1], the IC50 fold-change is 32 fold and the “IC50 fold-change compared to reference median IC50 values” was determined as 32 fold.
